For six compounds, inhibition of growth results are on record in ChEMBL document CHEMBL4414672, “Synthesis of certain benzothieno[3,2-d]pyrimidine derivatives as a selective SIRT2 inhibitors” (Eur J Med Chem, 2020).

Assay type in all cases: functional
In one assay the test system is M14. In words: Growth inhibition of human M14 cells at 10^-5 M incubated for 48 hrs by sulforhodamine B assay. To be noted: M14, 48 h, read-out: GI.
For another assay, the system named is SF-539. In words: Growth inhibition of human SF539 cells at 10^-5 M incubated for 48 hrs by sulforhodamine B assay. The settings on record: SF-539, 48 h, read-out: GI. For orientation: Sulforhodamine B stains cellular protein and so reports cell mass.
For another assay, the system named is RXF 393. The assay can be described thus: Growth inhibition of human RXF393 cells at 10^-5 M incubated for 48 hrs by sulforhodamine B assay. To be noted: RXF 393, 48 h, read-out: GI.
The subject of a further assay is SK-MEL-2. The assay can be described thus: Growth inhibition of human SK-MEL-2 cells at 10^-5 M incubated for 48 hrs by sulforhodamine B assay. The settings on record: SK-MEL-2, 48 h, read-out: GI.
The next assay concerns HOP-92. The assay can be described thus: Growth inhibition of human HOP92 cells at 10^-5 M incubated for 48 hrs by sulforhodamine B assay. The settings on record: HOP-92, 48 h, read-out: GI.
The test system of a further assay is NCI-H23. In words: Growth inhibition of human NCI-H23 cells at 10^-5 M incubated for 48 hrs by sulforhodamine B assay. The settings on record: NCI-H23, 48 h, read-out: GI.
For another assay, the system named is MDA-MB-231. The assay can be described thus: Growth inhibition of human MDA-MB-231 cells at 10^-5 M incubated for 48 hrs by sulforhodamine B assay. To be noted: MDA-MB-231, 48 h, read-out: GI.
A further assay has as its system SR. The assay can be described thus: Growth inhibition of human SR cells at 10^-5 M incubated for 48 hrs by sulforhodamine B assay. The settings on record: read-out: GI.
In the next assay the test system is SK-OV-3. In words: Growth inhibition of human SKOV3 cells at 10^-5 M incubated for 48 hrs by sulforhodamine B assay. To be noted: SK-OV-3, 48 h, read-out: GI.
Another assay relates to UACC-62. In words: Growth inhibition of human UACC62 cells at 10^-5 M incubated for 48 hrs by sulforhodamine B assay. The settings on record: UACC-62, 48 h, read-out: GI.
A further assay deals with OVCAR-3. In words: Growth inhibition of human OVCAR3 cells at 10^-5 M incubated for 48 hrs by sulforhodamine B assay. To be noted: OVCAR-3, 48 h, read-out: GI.
The next assay has as its system PC-3. In words: Growth inhibition of human PC3 cells at 10^-5 M incubated for 48 hrs by sulforhodamine B assay. The settings on record: PC-3, 48 h, read-out: GI.
Another assay has as its system TK-10. The assay can be described thus: Growth inhibition of human TK10 cells at 10^-5 M incubated for 48 hrs by sulforhodamine B assay. The settings on record: TK-10, 48 h, read-out: GI.
A further assay has as its system K562. The assay can be described thus: Growth inhibition of human K562 cells at 10^-5 M incubated for 48 hrs by sulforhodamine B assay. The settings on record: K562, 48 h, read-out: GI.
The test system of a further assay is OVCAR-8. In words: Growth inhibition of human OVCAR8 cells at 10^-5 M incubated for 48 hrs by sulforhodamine B assay. The settings on record: OVCAR-8, 48 h, read-out: GI.
For another assay, the system named is SN12C. The assay can be described thus: Growth inhibition of human SN12C cells at 10^-5 M incubated for 48 hrs by sulforhodamine B assay. To be noted: read-out: GI.
The next assay relates to SNB-19. The assay can be described thus: Growth inhibition of human SNB19 cells at 10^-5 M incubated for 48 hrs by sulforhodamine B assay. The settings on record: SNB-19, 48 h, read-out: GI.
A further assay deals with Malme-3M. In words: Growth inhibition of human MALME-3M cells at 10^-5 M incubated for 48 hrs by sulforhodamine B assay. To be noted: read-out: GI.
Another assay concerns T47D. In words: Growth inhibition of human T47D cells at 10^-5 M incubated for 48 hrs by sulforhodamine B assay. To be noted: read-out: GI.
A further assay concerns A498. In words: Growth inhibition of human A498 cells at 10^-5 M incubated for 48 hrs by sulforhodamine B assay. The settings on record: A498, 48 h, read-out: GI.
For another assay, the system named is NCI-H322M. In words: Growth inhibition of human NCI-H322M cells at 10^-5 M incubated for 48 hrs by sulforhodamine B assay. To be noted: read-out: GI.

Consider `Oc1ccccc1C1NC(=S)Nc2c1sc1ccc(Cl)cc21` (stereo unspecified), for which the inhibition of growth at 10 µM in the assay with M14 is 7.43%; with SF-539 it was -0.95%; in the assay with RXF 393, 2.85%; in the assay on SK-MEL-2, 7.35%; in the assay on HOP-92, 13.4%; in the assay with NCI-H23 it was 19.4%. Also, the inhibition of growth at 10 µM was found to be 27.4% in the assay on MDA-MB-231; 16.3% in the assay on SR; 8.48% in the assay on SK-OV-3; 13.1% in the assay with UACC-62; 4.13% in the assay on OVCAR-3; 10.2% in the assay with PC-3. Further, the inhibition of growth at 10 µM with TK-10 was -8.34%; in the assay with K562 it was 8.3%; in the assay on OVCAR-8 it was 5.15%; in the assay with SN12C, 9.77%; in the assay on SNB-19 it was 2.48%; in the assay on Malme-3M it was 10.7%. The inhibition of growth at 10 µM in the assay with T47D was 24.8%; with A498, 23.4%; in the assay on NCI-H322M, 5.31%.

For the compound `N=C1Nc2c(sc3ccc(Cl)cc23)C(c2ccc3ccccc3c2)N1` (stereo unspecified), the inhibition of growth at 10 µM was -0.34% with M14; -2.62% in the assay on SF-539; 0.36% in the assay on RXF 393; -16.2% in the assay with SK-MEL-2; 8.76% in the assay on HOP-92; 5.66% in the assay on NCI-H23. For the same compound, the inhibition of growth at 10 µM in the assay on MDA-MB-231 is -0.83%; in the assay with SR it was -0.62%; in the assay with SK-OV-3, -0.13%; in the assay on UACC-62 it was 6%; with OVCAR-3, 8.92%; with PC-3, -10%. Moreover, the inhibition of growth at 10 µM is 30.2% in the assay with TK-10; 6.06% in the assay with K562; -3.15% with OVCAR-8; -25.1% in the assay on SN12C; 18.1% in the assay with SNB-19; 1.8% in the assay with Malme-3M. For the same compound, the inhibition of growth at 10 µM in the assay with T47D was -15.3%; in the assay with A498 it was 6.65%; with NCI-H322M, 6.59%.

Turning to `O=C1Nc2c(sc3ccc(Cl)cc23)C(c2cccc(Br)c2)N1` (stereo unspecified), the inhibition of growth at 10 µM is 1.96% in the assay with M14; -0.96% in the assay with SF-539; -18.1% in the assay on RXF 393; -9.69% in the assay with SK-MEL-2; 0.42% in the assay on HOP-92; 9.39% with NCI-H23. Moreover, the inhibition of growth at 10 µM in the assay with MDA-MB-231 was 6.83%; in the assay on SR it was 20.9%; in the assay on SK-OV-3, 19.7%; in the assay with UACC-62, 8.42%; with OVCAR-3, 6.24%; with PC-3, 0.46%. Further, the inhibition of growth at 10 µM with TK-10 is -23.4%; with K562 it was 6.28%; with OVCAR-8 it was -2.63%; in the assay on SN12C, 2.71%; in the assay with SNB-19 it was 0.22%; in the assay with Malme-3M, 2.75%. Moreover, the figures for the inhibition of growth at 10 µM in the assay on T47D, in the assay on A498 and in the assay with NCI-H322M were 13%, -8.2% and 5.33%, respectively.

Consider `N=C1Nc2c(sc3ccc(Cl)cc23)C(c2cccc([N+](=O)[O-])c2)N1` (stereo unspecified), for which the inhibition of growth at 10 µM is -5.05% in the assay on M14; 1.35% in the assay on SF-539; 4.42% in the assay with RXF 393; -19.5% in the assay on SK-MEL-2; 19.2% in the assay with HOP-92; 5.31% in the assay on NCI-H23. Also, the inhibition of growth at 10 µM is -0.16% in the assay on MDA-MB-231; -3.11% in the assay with SR; -1.73% with SK-OV-3; 23.1% in the assay with UACC-62; 10.7% with OVCAR-3; -10.1% in the assay on PC-3. Further, the inhibition of growth at 10 µM in the assay on TK-10 is 40.3%; in the assay on K562 it was 9.47%; with OVCAR-8, 9.4%; with SN12C, -19.7%; in the assay with SNB-19, 16.8%; with Malme-3M it was -4.49%. Moreover, the figures for the inhibition of growth at 10 µM in the assay on T47D, with A498 and in the assay on NCI-H322M were 1.02%, 9.1% and 4.7%, respectively.

For `S=C1Nc2c(sc3ccc(Cl)cc23)C(c2cccc(Br)c2)N1` (stereo unspecified), the inhibition of growth at 10 µM is 6.42% with M14; 1% with SF-539; -7.19% in the assay on RXF 393; -6.36% in the assay with SK-MEL-2; -3.61% with HOP-92; 12.2% in the assay on NCI-H23. The inhibition of growth at 10 µM in the assay on MDA-MB-231 was 9.68%; in the assay with SR, 16.3%; with SK-OV-3, 10.4%; in the assay on UACC-62 it was 13%; in the assay on OVCAR-3 it was -0.26%; in the assay on PC-3 it was 6.34%. Also, the inhibition of growth at 10 µM is -18.3% in the assay with TK-10; 1.5% in the assay on K562; 3.39% in the assay on OVCAR-8; 2.82% in the assay with SN12C; 2.38% in the assay on SNB-19; -1% with Malme-3M. The inhibition of growth at 10 µM in the assay with T47D turned out to be 24.5%; in the assay with A498, 31.7%; in the assay with NCI-H322M, 5.66%.

`O=C1/C(=C\c2cccc([N+](=O)[O-])c2)Sc2ccc(Cl)cc21`: the inhibition of growth at 10 µM was 4.61% with M14; -3.16% in the assay with SF-539; 15.7% with RXF 393; 12.4% in the assay with SK-MEL-2; 42.7% with HOP-92; 16.7% in the assay on NCI-H23. For the same compound, the inhibition of growth at 10 µM with MDA-MB-231 is 9.23%; with SR it was 54.8%; in the assay on SK-OV-3, 5.38%; in the assay on UACC-62, 29.5%; in the assay with OVCAR-3, -2.4%; in the assay on PC-3, -3.94%. Also, the inhibition of growth at 10 µM in the assay with TK-10 is -12.1%; with K562 it was 10.5%; in the assay on OVCAR-8, 0.87%; in the assay with SN12C, -12.1%; with SNB-19, -6.12%; in the assay with Malme-3M it was 22.4%. The inhibition of growth at 10 µM in the assay with T47D was found to be 13.1%; in the assay with A498 it was 11.5%; in the assay on NCI-H322M it was 4.18%.
